For 71 compounds, IC50 results are on record in patent publication US5552421A, “Leukotriene biosynthesis inhibitors” (Boehringer Ingelheim Pharmaceuticals, Inc., priority 1995, dated 1996).

This assay has as its system LTB4 biosynthesis in human polymorphonuclear leukocytes (PMNs). The assay is described as follows: Inhibition of LTB4 biosynthesis in human polymorphonuclear leukocytes (PMNs). It is filed as cell-based. As to the method: Inhibition of LTB4, biosynthesis in human polymorphonuclear leukocytes (PMNs)
The inhibition of leukotriene biosynthesis is measured by determining whether and to what extent test compounds can inhibit LTB4 production from endogenous arachidonic acid in human peripheral blood leukocytes.
To 48-well tissue culture plates was added a solution of the test compound followed by addition of human polymorphonuclear leukocytes isolated from peripheral blood at a density of 1.5×10^6 cells/well. Culture plates were preincubated for fifteen minutes with shaking at 28° C. Cells were stimulated with calcium ionophore A23187 at a final concentration of 2.5 μM for an additional ten minutes. The reaction was terminated by the addition of an EGTA solution (10 mM final concentration)followed by centrifugation at 1500 rpm at 10° C. Supernatants were stored at -70° C. LTB4 levels were determined by RIA using a commercially available kit. Nonlinear regression analysis was used to calculate. IC50 values.
The following tables show % inhibition of LTB4 biosynthesis by compounds of the invention at test concentrations indicated, with the determined IC50 shown in μM.

Setting [1] is: Leukocyte, Table 1, Esters, LTB4, A23187-stimulated human PMNs, values with < (footnote d): greater than 50% (504 [sic]) inhibition at this concentration, IC50 not characterized further.
[2] abbreviates: Table 4, Pyridyl, values with <: see footnote d, Table 1.
The mark [3] stands for this setting: Table 10, Oxazolopyridines, values with <: see footnote d, Table 1.
Where [4] appears, read: Homo sapiens, Leukocyte, Table 1A, Esters, LTB4, A23187-stimulated human PMNs.
Where [5] appears, read: Homo sapiens, Leukocyte, Table 2, Amides, values with <: see footnote d, Tables 1 and 1A.
[6] abbreviates: Homo sapiens, Leukocyte, Table 3, Phenyl, values with <: see footnote d, Table 1.
Setting [7] is: Homo sapiens, Leukocyte, Table 4, Pyridyl, values with <: see footnote d, Table 1.

One may read the IC50 as the point on the concentration scale where inhibition reaches its midpoint. The compound `CCOC(=O)C(Cc1ccccc1)Nc1nc2ccccc2s1` (racemic) [Compound 4, DL-N-(Benzothiazol-2-yl)phenylalanine ethyl ester] yielded an IC50 under setting [1] of 400 nM.
Turning to `CCOC(=O)C(Cc1ccc(Cl)cc1)Nc1nc2ccc(C(C)C)cc2s1` (racemic) [Compound 7, DL-N-(6-Isopropylbenzothiazol-2-yl)-4-chlorophenylalanine ethyl ester], under setting [1], half-maximal inhibition (IC50) was put at 330 nM.
The compound `Cc1ccc2oc(NC(CC3CCCCC3)c3ccccn3)nc2c1` (single isomer, unassigned) [Compound 87] showed an IC50 under setting [2] of 1.3 nM.
For `Cc1ccc2oc(NC(CC3CCCCC3)c3ccccn3)nc2c1` (single isomer, unassigned) [Compound 88], under setting [2], the IC50 worked out at 45 nM.
The same measure, in the same setting: as for `Cc1ccc2oc(NC(CC3CCCCC3)c3cccnc3)nc2c1` (single isomer, unassigned) [Compound 89], the figure is 16 nM; as for `Cc1ccc2oc(NC(CC3CCCCC3)c3cccnc3)nc2c1` (single isomer, unassigned) [Compound 90], less than 1000 nM.
On the same count and under the same terms, the same measure for `Fc1ccc(CC(Nc2nc3cc(Cl)ccc3o2)c2ccccn2)cc1` (single isomer, unassigned) [Compound 118]: 10 nM; for `Fc1ccc(CC(Nc2nc3cc(Cl)ccc3o2)c2ccccn2)cc1` (single isomer, unassigned) [Compound 119]: 320 nM.
As for `Cc1ccc2oc(NC(CC3CCCCC3)c3ccccn3)nc2n1` (single isomer, unassigned) [Compound 166], under setting [3], the IC50 worked out at 15 nM.
Still for that read-out and setting: as for `Cc1ccc2oc(NC(CC3CCCCC3)c3ccccn3)nc2n1` (single isomer, unassigned) [Compound 167], the figure is 170 nM.
Under setting [1], `CCOC(=O)C(Cc1ccc(Cl)cc1)Nc1nc2ccccc2s1` (centres unmarked) [Compound 1] returned an IC50 of 200 nM.
In turn, `CCOC(=O)C(Cc1ccc(F)cc1)Nc1nc2ccccc2s1` (centres unmarked) [Compound 2] had a concentration for half-maximal inhibition (IC50) under setting [1] of 330 nM.
The same measure, in the same setting: as for `CCOC(=O)C(Cc1ccc(Br)cc1)Nc1nc2ccccc2s1` (centres unmarked) [Compound 3], the figure is 150 nM; as for `CCOC(=O)[C@H](Cc1ccccc1)Nc1nc2ccc(C(C)C)cc2s1` [Compound 6], 250 nM.
Still for that read-out and setting: the same measure for `COC(=O)[C@H](Cc1ccccc1)Nc1nc2ccc(C(C)C)cc2s1` [Compound 8]: 140 nM.
The compound `CCOC(=O)C(Cc1ccc(Cl)cc1)Nc1nc2ccc(OC)cc2s1` (centres unmarked) [Compound 9] yielded an IC50 under setting [1] of 230 nM.
On the same count and under the same terms, the same measure for `COC(=O)[C@@H](Cc1ccccc1)Nc1nc2ccc(C(C)C)cc2s1` [Compound 10]: 650 nM; for `CCCCc1ccc2nc(NC(Cc3ccc(Cl)cc3)C(=O)OCC)sc2c1` (centres unmarked) [Compound 11]: 170 nM; for `CCOC(=O)[C@H](Cc1ccccc1)Nc1nc2ccc(CC)cc2s1` [Compound 12]: 240 nM.
The same measure, in the same setting: as for `CC(C)(C)OC(=O)[C@H](Cc1ccccc1)Nc1nc2ccccc2s1` [Compound 13], the figure is 730 nM.
Same read-out and setting: the same measure for `CCOC(=O)[C@H](Cc1ccccc1)Nc1nc2cc(CC)ccc2s1` [Compound 14]: 9 nM; for `CCOC(=O)[C@H](CC1CCCCC1)Nc1nc2cc(CC)ccc2s1` [Compound 15]: 27 nM.
Compound `CCOC(=O)[C@H](CC1CCCCC1)Nc1nc2ccccc2s1` [Compound 16] yielded an IC50 under setting [1] of 6 nM.
On the same count and under the same terms, as for `CCOC(=O)[C@H](Cc1ccccc1)Nc1nc2ccccc2o1` [Compound 17], the figure is 150 nM; as for `CCOC(=O)[C@@H](Cc1ccccc1)Nc1nc2ccccc2o1` [Compound 18], 1500 nM.
Still for that read-out and setting: the same measure for `CCOC(=O)[C@H](Cc1ccccc1)Nc1nc2cc(C(C)C)ccc2o1` [Compound 19]: 0.52 nM.
The same measure, in the same setting: as for `CCOC(=O)[C@H](Cc1ccccc1)Nc1nc2ccc(C(C)C)cc2o1` [Compound 20], the figure is 220 nM.
Compound `COC(=O)[C@H](CC1CCCCC1)Nc1nc2ccccc2o1` [Compound 21] gave an IC50 under setting [1] of 6.4 nM.
On the same count and under the same terms, the same measure for `COC(=O)[C@@H](CC1CCCCC1)Nc1nc2ccccc2o1` [Compound 22]: 100 nM.
The same measure, in the same setting: as for `COC(=O)[C@H](CC1CCCCC1)Nc1nc2cc(C(C)C)ccc2o1` [Compound 23], the figure is 1 nM; as for `COC(=O)[C@H](CC1CCCCC1)Nc1nc2cc(C)ccc2o1` [Compound 24], 1.7 nM; as for `Cc1ccc2oc(N[C@@H](CC3CCCCC3)C(=O)OC(C)(C)C)nc2c1` [Compound 25], less than 300 nM.
The same measure, in the same setting: as for `COC(=O)[C@@H](CC1CCCCC1)Nc1nc2cc(C)ccc2o1` [Compound 26], the figure is 16 nM; as for `CCOC(=O)C(Cc1csc(C)n1)Nc1nc2cc(OC)ccc2o1` (centres unmarked) [Compound 27], less than 300 nM; as for `CCOC(=O)C(Cc1nccs1)Nc1nc2cc(Cl)ccc2o1` (centres unmarked) [Compound 28], less than 300 nM.
With `CCOC(=O)C(Cc1csc(C)n1)Nc1nc2cc(Cl)ccc2o1` (centres unmarked) [Compound 29], half-maximal inhibition under setting [1] (IC50) required 87 nM.
On the same count and under the same terms, the same measure for `CCOC(=O)C(Cc1cccnc1)Nc1nc2cc(C(C)C)ccc2o1` (centres unmarked) [Compound 30]: 190 nM; for `CCOC(=O)C(Cc1ccncc1)Nc1nc2cc(C(C)C)ccc2o1` (centres unmarked) [Compound 31]: less than 100 nM.
Compound `CCOC(=O)C(Cc1csc(C)n1)Nc1nc2cc(C(C)C)ccc2o1` (centres unmarked) [Compound 33] came in with an IC50 under setting [1] of less than 30 nM.
Compound `CCOC(=O)C(Cc1ccccc1)N(C)c1nc2ccccc2s1` (centres unmarked) [Compound 36] gave an IC50 under setting [4] of 1000 nM.
Same read-out and setting: the same measure for `CCOC(=O)C(CCc1ccccc1)Nc1nc2ccccc2s1` (centres unmarked) [Compound 37]: 520 nM; for `CCOC(=O)C(C)(Cc1ccccc1)Nc1nc2ccccc2s1` (centres unmarked) [Compound 38]: 200 nM.
Still for that read-out and setting: as for `CCOC(=O)C(C)(Cc1ccccc1)Nc1nc2ccccc2o1` (centres unmarked) [Compound 39], the figure is 76 nM.
On to `NC(=O)[C@H](Cc1ccccc1)Nc1nc2ccccc2s1` [Compound 40], for which it took 3000 nM to reach half-maximal inhibition under setting [5] (IC50).
The same measure, in the same setting: as for `CN(C)C(=O)C(Cc1ccccc1)Nc1nc2ccccc2s1` (centres unmarked) [Compound 41], the figure is 3000 nM; as for `CCNC(=O)C(Cc1ccccc1)Nc1nc2ccc(C(C)C)cc2s1` (centres unmarked) [Compound 42], 3000 nM.
The same measure, in the same setting: the same measure for `CON(C)C(=O)[C@H](Cc1ccccc1)Nc1nc2ccccc2o1` [Compound 43]: less than 1000 nM.
`CNC(=O)[C@H](CC1CCCCC1)Nc1nc2cc(C)ccc2o1` [Compound 44, L-N-(5-Methylbenzoxazol-2-yl)cyclohexylalanine-N'-methylamide] displayed an IC50 under setting [5] of 72 nM.
Still for that read-out and setting: the same measure for `CON(C)C(=O)[C@H](CC1CCCCC1)Nc1nc2cc(C)ccc2o1` [Compound 45]: 30 nM; for `Cc1ccc2oc(N[C@@H](CC3CCCCC3)C(=O)N3CCCCC3)nc2c1` [Compound 46]: 190 nM.
`c1ccc(CC(Nc2nc3ccccc3s2)c2ccccc2)cc1` (centres unmarked) [Compound 47] came in with an IC50 under setting [6] of 160 nM.
The same measure, in the same setting: the same measure for `c1ccc(CC(Nc2nc3ccccc3o2)c2ccccc2)cc1` (centres unmarked) [Compound 50]: less than 1000 nM; for `CC(C)c1ccc2oc(NC(CC3CCCCC3)c3ccccc3)nc2c1` (centres unmarked) [Compound 54]: 6.3 nM.
Still for that read-out and setting: as for `Clc1ccc(C(CC2CCCCC2)Nc2nc3ccccc3o2)cc1` (centres unmarked) [Compound 55], the figure is 300 nM; as for `Cc1cccc(C(CC2CCCCC2)Nc2nc3ccccc3o2)c1` (centres unmarked) [Compound 57], 300 nM; as for `Clc1ccccc1C(CC1CCCCC1)Nc1nc2ccccc2o1` (centres unmarked) [Compound 58], 80 nM.
`Ic1ccc2oc(NC(CC3CCCCC3)c3ccccc3)nc2c1` (centres unmarked) [Compound 59] showed an IC50 under setting [6] of 13 nM.
The same measure, in the same setting: the same measure for `CS(=O)(=O)Nc1ccc2oc(NC(CC3CCCCC3)c3ccccc3)nc2c1` (centres unmarked) [Compound 60]: 160 nM; for `CC(=O)Nc1ccc2oc(NC(CC3CCCCC3)c3ccccc3)nc2c1` (centres unmarked) [Compound 61]: 76 nM.
Still for that read-out and setting: as for `CNC(=O)Nc1ccc2oc(NC(CC3CCCCC3)c3ccccc3)nc2c1` (centres unmarked) [Compound 62], the figure is less than 1000 nM; as for `O=C(O)c1ccc2oc(NC(CC3CCCCC3)c3ccccc3)nc2c1` (centres unmarked) [Compound 63], 190 nM.
Compound `NC(=O)c1ccc2oc(NC(CC3CCCCC3)c3ccccc3)nc2c1` (centres unmarked) [Compound 64] returned an IC50 under setting [6] of less than 1000 nM.
On the same count and under the same terms, the same measure for `CN(C)C(=O)c1ccc2oc(NC(CC3CCCCC3)c3ccccc3)nc2c1` (centres unmarked) [Compound 65]: 170 nM; for `O=C(O)c1ccc2nc(NC(CC3CCCCC3)c3ccccc3)sc2c1` (centres unmarked) [Compound 66]: 220 nM.
On the same count and under the same terms, the same measure for `N#Cc1ccc2oc(NC(CC3CCCCC3)c3ccccc3)nc2c1` (centres unmarked) [Compound 67]: 150 nM; for `Fc1ccc(C(CC2CCCCC2)Nc2nc3ccccc3o2)cc1` (centres unmarked) [Compound 71]: 170 nM.
For the compound `c1cncc(C(CC2CCCCC2)Nc2nc3ccccc3o2)c1` (centres unmarked) [Compound 80], the half-inhibitory concentration (IC50) under setting [7] was 55 nM.
Regarding `Cc1ccc2oc(NC(CC3CCCCC3)c3cccnc3)nc2c1` (centres unmarked) [Compound 82], the IC50 under setting [7] stood at 24 nM.
On the same count and under the same terms, as for `Cc1ccc2oc(NC(CC3CCCCC3)c3ccncc3)nc2c1` (centres unmarked) [Compound 83], the figure is 190 nM; as for `O=[N+]([O-])c1ccc2nc(NC(CC3CCCCC3)c3cccnc3)oc2c1` (centres unmarked) [Compound 84], 35 nM.
Same read-out and setting: as for `O=[N+]([O-])c1ccc2oc(NC(CC3CCCCC3)c3cccnc3)nc2c1` (centres unmarked) [Compound 85], the figure is 24 nM.
